Molecular target: CDK-2 (Homo sapiens, UniProt P24941)
Assay: CDK-2 inhibition, fluorescence polarization displacement assay
Experimental: Binding assays were performed in a 384 well Costar NBS coated plate. […] The concentration of BMS-Alexa Fluor647 was 50 nM. Serial dilutions of compounds were added to 12 wells. The final buffer concentration was 10 mM Hepes, pH 7.5, 150 mM NaCl, and 1 mM DTT. Samples were incubated at room temperature for 15 minutes and then read in an Analyst HT instrument using an excitation and emission wavelength of 580 and 680 nm, respectively.

Row | Compound | IC50 [nM]
1 | COC(=O)[C@H](Cc1ccc(O)cc1)NC(=O)c1cc(C(=O)O)c2cc(-c3cccc(F)c3)ccc2n1 [Compound 93] | 1000 to 40000
2 | COC(=O)[C@H](Cc1ccc(O)cc1)NC(=O)c1cc(C(=O)O)c2cc(-c3cccc(C#N)c3)ccc2n1 [Compound 36] | < 1000
3 | COC(=O)[C@H](Cc1ccc(O)cc1)NC(=O)c1cc(C(=O)O)c2cc(-c3cc(C)cc(C)c3)ccc2n1 [Compound 67] | < 1000
4 | COC(=O)[C@H](Cc1ccc(O)cc1)NC(=O)c1cc(C(=O)O)c2cc(-c3ccc(S(C)(=O)=O)cc3)ccc2n1 [Compound 157] | > 40000
5 | O=C(NC(Cc1ccc(O)cc1)C1CCCCC1)c1cc(C(=O)O)c2cc(-c3cccc(C(F)(F)F)c3)ccc2n1 (stereo not drawn) [Compound 63] | < 1000
6 | COC(=O)[C@H](Cc1ccc(O)cc1)NC(=O)c1cc(C(=O)O)c2cc(-c3ccc(OC)c(F)c3)ccc2n1 [Compound 113] | 1000 to 40000
7 | COC(=O)[C@H](Cc1ccc(O)cc1)NC(=O)c1cc(C(=O)O)c2cc(-c3cccc([N+](=O)[O-])c3)ccc2n1 [Compound 33] | < 1000
8 | COC(=O)[C@H](Cc1ccc(O)cc1)NC(=O)c1cc(C(=O)O)c2cc(-c3ccc(C(C)C)cc3)ccc2n1 [Compound 72] | < 1000
9 | COC(=O)[C@H](Cc1ccc(O)cc1)NC(=O)c1cc(C(=O)O)c2cc(CCc3ccccc3)ccc2n1 [Compound 60] | < 1000
10 | COC(=O)[C@H](Cc1ccc(O)cc1)NC(=O)c1cc(C(=O)O)c2cc(-c3ccc4ccccc4c3)ccc2n1 [Compound 133] | 1000 to 40000
11 | COC(=O)[C@H](Cc1ccc(O)cc1)NC(=O)c1cc(C(=O)O)c2cc(-c3ccc(F)cc3)ccc2n1 [Compound 135] | 1000 to 40000
12 | COC[C@H](Cc1ccc(O)cc1)NC(=O)c1cc(NS(=O)(=O)C(C)(C)C)c2cc(-c3cccc(COc4ccccn4)c3)ccc2n1 [Compound 27] | < 1000
13 | COC[C@H](Cc1ccc(O)cc1)NC(=O)c1cc(-c2nnn[nH]2)c2cc(-c3cccc(C(F)(F)F)c3)ccc2n1 [Compound 87] | < 1000
14 | COC(=O)[C@H](Cc1ccc(O)cc1)NC(=O)c1cc(C(=O)O)c2cc(-c3cc4ccccc4o3)ccc2n1 [Compound 38] | < 1000
15 | COC(=O)[C@H](Cc1ccc(O)cc1)NC(=O)c1cc(C(=O)O)c2cc(-c3cccc(C)c3)ccc2n1 [Compound 48] | < 1000
16 | COC(=O)[C@H](Cc1ccc(O)cc1)NC(=O)c1cc(C(=O)O)c2cc(-c3ccc(OC)cc3)ccc2n1 [Compound 76] | < 1000
17 | COC[C@H](Cc1ccc(O)cc1)NC(=O)c1cc(C(=O)O)c2cc(C#CCCC#N)ccc2n1 [Compound 152] | 1000 to 40000
18 | CNC(=O)[C@H](Cc1ccc(O)cc1)NC(=O)c1cc(C(=O)O)c2cc(/C=C/c3ccc(Cl)cc3)ccc2n1 [Compound 14] | < 1000

The remaining lines, values ahead:

Row | IC50 [nM] | Compound
19 | > 40000 | COC[C@H](Cc1ccc(O)cc1)NC(=O)c1cc(C(=O)O)c2cc(C#Cc3ccncc3)ccc2n1 [Compound 204]
20 | > 40000 | COC[C@H](Cc1ccc(O)cc1)NC(=O)c1cc(C(=O)OCCO)c2cc(/C=C/c3ccc(Cl)cc3)ccc2n1 [Compound 214]
21 | > 40000 | COC[C@H](Cc1ccc(O)cc1)NC(=O)c1cc(C(=O)OCC(O)CO)c2cc(-c3cccc(C(F)(F)F)c3)ccc2n1 (stereo partly drawn) [Compound 174]
22 | > 40000 | COC[C@H](Cc1ccc(O)cc1)NC(=O)c1cc(-n2cccn2)c2cc(-c3cccc(Cn4cccn4)c3)ccc2n1 [Compound 213]
23 | > 40000 | COC(=O)c1cc(C(=O)N[C@@H](Cc2ccc(O)cc2)C(=O)OC)nc2ccc(-c3cccs3)cc12 [Compound 229]
24 | > 40000 | CC(C)(C)S(=O)(=O)Nc1cc(C(=O)N[C@H](CN)Cc2ccc(O)cc2)nc2ccc(C#Cc3ccccn3)cc12 [Compound 225]
25 | > 40000 | COC[C@H](Cc1ccc(O)cc1)NC(=O)c1cc(C(=O)O)c2cc(CSc3ccccn3)ccc2n1 [Compound 210]
26 | > 40000 | COC[C@H](Cc1ccc(O)cc1)NC(=O)c1cc(C(=O)O)c2cc(/C=C/c3cccnc3)ccc2n1 [Compound 188]
27 | > 40000 | COC(=O)[C@H](Cc1ccc(O)cc1)NC(=O)c1cc(C(N)=O)c2cc(-c3cccs3)ccc2n1 [Compound 227]

Reference: patent publication EP1931657B1, “NOVEL HIGH AFFINITY QUINOLINE-BASED KINASE LIGANDS” (Merck Sharp & Dohme Corp., priority 2005, dated 2007)
